Read-outs that look alike come from different tables or passages of the source.

For orientation: IC50 means the midpoint of a concentration-inhibition curve.

For test [1], the system named is PC12 cells, or rat sympathetic neurons. As to conditions: Park et al. 1997, cited from earlier work; for concentration giving maximal protection from death: camptothecin-treated PC12 cells or rat sympathetic neurons; for cell death at day 6: camptothecin-treated neuronal cells.
For a further test, the system named is SMC. To be noted: in vitro and in vivo; Ruef et al. 1999; cited from earlier work.
The subject of the next test is herpes simplex virus. To be noted: Schang et al. 1998; cited from earlier work.
For a further test, the target named is cdk4/cyclin D1 (Homo sapiens, UniProt P11802). Kind of test: Cyclin-dependent kinase assay, cdk4/cyclin D1 (GST-pRb substrate). Format: biochemical.
The subject of another test is MDA-MB-435. Kind of test: In vitro proliferation assay (MTT), MDA-MB-435. Format: cell-based, human. As to conditions: mean (SD, n) where given, read-out: MB-435 Breast (IC50 μM). Here is the method:
(§1) The proliferation of tumor cells can be measured using a tetrazolium salt-based assay known as the MTT (3-[4,5-Dimethylthiazol-2-yl]-2,5-diphenyltetrazolium bromide) assay. […] For the assay, the cell lines are plated onto 96 well plates at 1000 to 2500 cells/well (depending on the properties of the individual cell lines), left to attach and recover overnight. […] After 3 days, the cells are incubated with MTT dye (3-[4,5-Dimethylthiazol-2-yl]-2,5-diphenyltetrazolium bromide, Sigma #M5655, 10 mg/ml in Hank's Buffered Saline) to estimate the amount of live cells remaining vs. concentration for the test compounds. […] The MTT and culture medium is then removed from the cultures and 200 μl of DMSO is added to solubilize the dye from the cell layer. The absorbance at 570 nm is determined for each culture using a Spectramax plate reader (Molecular Devices).
(§2) IC50s were determined from the raw data from either the MTT or SRB assays.
(§3) All of the cell lines were obtained from American Type Tissue Collection, with the ATCC accession number in parentheticals. MCF-7 and MDA-MB-231 cells were grown in improved minimum essential medium (Biofluids) without phenol red, supplemented with 5% fetal bovine serum, 0.01 mg/ml gentamicin and 3 mM L-glutamine.

The test system of the next test is HL-60. Nature of the test: In vitro proliferation assay (MTT), HL-60. As to conditions: read-out: HL-60 Leuk. (IC50 μM). Format: cell-based, human. Here is the method: (§4) The proliferation of tumor cells can be measured using a tetrazolium salt-based assay known as the MTT (3-[4,5-Dimethylthiazol-2-yl]-2,5-diphenyltetrazolium bromide) assay. The proliferation test is performed essentially as described by Carmichael et al., Cancer Res. 47: 936-942, 1987. For the assay, the cell lines are plated onto 96 well plates at 1000 to 2500 cells/well (depending on the properties of the individual cell lines), left to attach and recover overnight. […] After 3 days, the cells are incubated with MTT dye (3-[4,5-Dimethylthiazol-2-yl]-2,5-diphenyltetrazolium bromide, Sigma #M5655, 10 mg/ml in Hank's Buffered Saline) to estimate the amount of live cells remaining vs. concentration for the test compounds. Specifically, MTT solution is added to a final concentration of […] and the plates incubated at 37 C for 2 to 4 hr. The MTT and culture medium is then removed from the cultures and 200 μl of DMSO is added to solubilize the dye from the cell layer. The absorbance at 570 nm is determined for each culture using a Spectramax plate reader (Molecular Devices).
as §2
(§5) All of the cell lines were obtained from American Type Tissue Collection, with the ATCC accession number in parentheticals. […]

The test system of a further test is Jurkat. Nature of the test: In vitro proliferation assay (MTT), Jurkat. The format is cell-based, human. To be noted: read-out: Jurkat Leuk. (IC50 μM). Here is the method:
as §4, §2, §5

A further test deals with PC-3. Kind of test: In vitro proliferation assay (MTT), PC-3. Format: cell-based, human. As to conditions: MTT assay; mean (SD, n) where given; read-out: PC-3 Prostate (IC50 μM). Here is the method:
as §1, §2, §3
(In general: Tetrazolium dyes change colour on reduction, which living cells bring about.)

Test [2] has as its system PC-3 human prostate tumors. Nature of the test: PC-3 human prostate tumor xenograft in nude mice. Format: in vivo. As to conditions: Table 5, control 1308 ± 852. The procedure: (§6) Antitumor efficacy is assessed using two subcutaneous human tumor xenograft models. The studies are performed using conventional assay techniques. Briefly, HL-60 (leukemia, 5×10^5 cells) and PC-3 (prostate, 5×10^6 cells) tumor cells are injected subcutaneously into nude mice (Cr1-CD1-Br-nu, Charles River Laboratory, Wilmington, Mass.). Dosing with compounds began when tumors reached 50 to 100 mm^3. The dose route/schedule for the test compounds is ip/q1d (5×/wk). The test doses are set based on the maximum tolerated dose (MTD). […] The test doses for the efficacy studies are set at ⅓rd the MTD (low dose) and the MTD (high dose). The results are shown in Tables 4 and 5 (HL-60, leukemia) (PC-3, prostate cancer). The length of the treatment phase is dependent on the tumor growth rate for the two models. This treatment phase is typically about 3 weeks for the HL-60 model and about 5 weeks for the PC-3 model. […] Dosing with flavopiridol is for the same time frame as for the experimental compounds in both xenograft models. Tumor volume (twice weekly) and body weights (once weekly) are monitored throughout the course of the treatment phase of the experiment. Tumor sizes are measured by external caliper measurements of protruding tumor. Volumes are calculated using the following formula: volume=½ (a×b2), where b is the smaller of two perpendicular diameters.

The next test concerns HL-60 human leukemia. Nature of the test: HL-60 human leukemia xenograft in nude mice. Format: in vivo. As to conditions: Table 5, control 8341 ± 5355. Here is the method:
as §6
A general note: Xenograft models place foreign cells or tissue in a host animal.

The target of a further test is cdk2/cyclin E (Homo sapiens, UniProt P24941). Nature of the test: Cyclin-dependent kinase assay, cdk2/cyclin E (GST-pRb substrate). As to conditions: read-out: CDK2 IC50; inhibition of cyclin E/CDK 2 enzyme activity.
For a further test, the target named is cdk1/cyclin B (Homo sapiens, UniProt P06493). Nature of the test: Cyclin-dependent kinase assay, cdk1/cyclin B (Histone H1 substrate). To be noted: read-out: CDK1 IC50; inhibition of cyclin B/CDK 1 enzyme activity.
Another test concerns NCI-H460. Nature of the test: In vitro proliferation assay (MTT), NCI-H460. The format is cell-based, human. To be noted: read-out: H-460 Lung (IC50 μM). The procedure:
as §4, §2, §5

The next test relates to Colo-205. Nature of the test: In vitro proliferation assay (MTT), Colo-205. The format is cell-based. As to conditions: read-out: Colo-205 Colon (IC50 μM). The procedure:
as §4, §2

Chain of cdk1/cyclin B (P06493 whole entry): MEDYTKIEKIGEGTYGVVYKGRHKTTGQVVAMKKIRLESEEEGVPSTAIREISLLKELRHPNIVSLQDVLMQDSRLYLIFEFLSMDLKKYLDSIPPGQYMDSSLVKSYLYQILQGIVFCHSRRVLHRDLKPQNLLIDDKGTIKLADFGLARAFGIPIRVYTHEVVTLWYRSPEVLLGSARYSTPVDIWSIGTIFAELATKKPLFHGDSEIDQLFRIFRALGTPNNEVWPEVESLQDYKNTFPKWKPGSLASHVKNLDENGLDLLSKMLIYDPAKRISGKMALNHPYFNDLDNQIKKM
Chain of cdk1/cyclin B (P14635 whole entry partner): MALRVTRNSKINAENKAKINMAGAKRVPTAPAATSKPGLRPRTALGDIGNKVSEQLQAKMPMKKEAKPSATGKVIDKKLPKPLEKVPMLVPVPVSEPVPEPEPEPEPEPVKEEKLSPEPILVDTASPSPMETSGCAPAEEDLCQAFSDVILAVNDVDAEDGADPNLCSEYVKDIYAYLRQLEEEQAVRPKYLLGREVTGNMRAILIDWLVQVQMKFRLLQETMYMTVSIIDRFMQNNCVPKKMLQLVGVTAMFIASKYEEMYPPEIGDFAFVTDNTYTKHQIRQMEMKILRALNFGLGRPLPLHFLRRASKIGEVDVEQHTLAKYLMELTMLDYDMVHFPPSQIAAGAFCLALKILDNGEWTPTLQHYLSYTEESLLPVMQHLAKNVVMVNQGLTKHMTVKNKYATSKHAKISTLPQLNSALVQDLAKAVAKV
Chain of cdk4/cyclin D1 (P11802 whole entry): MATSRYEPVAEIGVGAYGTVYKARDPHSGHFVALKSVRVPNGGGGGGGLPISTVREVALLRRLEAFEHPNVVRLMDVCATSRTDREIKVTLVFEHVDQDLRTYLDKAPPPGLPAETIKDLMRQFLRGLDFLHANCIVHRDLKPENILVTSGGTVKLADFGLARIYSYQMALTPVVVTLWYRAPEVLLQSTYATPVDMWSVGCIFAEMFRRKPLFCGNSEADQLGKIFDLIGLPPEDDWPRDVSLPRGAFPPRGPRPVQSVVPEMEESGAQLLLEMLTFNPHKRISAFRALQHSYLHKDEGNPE
Chain of cdk4/cyclin D1 (P24385 whole entry partner): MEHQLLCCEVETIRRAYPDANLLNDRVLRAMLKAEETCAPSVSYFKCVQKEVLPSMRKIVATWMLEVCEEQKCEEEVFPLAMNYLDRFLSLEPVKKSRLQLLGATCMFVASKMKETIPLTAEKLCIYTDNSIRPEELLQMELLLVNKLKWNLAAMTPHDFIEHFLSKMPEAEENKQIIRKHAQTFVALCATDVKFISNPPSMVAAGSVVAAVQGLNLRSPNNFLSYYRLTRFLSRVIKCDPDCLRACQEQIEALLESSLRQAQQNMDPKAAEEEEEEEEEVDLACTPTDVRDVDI
Protocol for cdk1/cyclin B: (§7) The IC50 values for cdk1/cyclin B, cdk2/cyclin E, and cdk4/cyclin D1 inhibition are determined using the following methods:
The cdk1 sequence (accession number Y00272) is amplified by PCR and cloned into the BamHI and SalI sites of pFASTBAC1 (Life Technologies).
The cyclin B1 sequence (accession number M25753) is amplified by PCR and cloned into the BamHI and SalI sites of pFASTBAC1 (Life Technologies).
(§8) The cDNA for each of the cyclin-dependent kinases (CDK) and the corresponding cyclins are cloned into the baculovirus expression vector, pFASTBAC1 (Life Technologies). The sequences of each of the constructs are confirmed by automated fluorescent DNA sequencing according to the manufacture's protocol (Perkin Elmer/Applied Biosystems Inc).
(§9) The insect cell (Sf9) expression is optimized for each of the CDK/cyclin pairs according to the manufacturer's protocols (Life Technologies).
(§10) The viruses are added to the cells and the culture is incubated at 27° C. for the desired time. The cells are harvested by centrifugation at 3000 rpm for 10 minutes. The cells are snap frozen on dry ice and stored at −80° C.
(§11) Cell extracts are made following a standard procedure. The cell pellet is resuspended in lysis buffer (50 mM HEPES, pH 8.0, 10 mM MgCl2, 1 mM DTT, 2.5 mM EGTA, 1 mM EDTA, 10 mM β-glycerophosphate, 1 mM sodium vanadate, 1 mM sodium fluoride, 1×Protease inhibitor cocktail). The cells are lysed using the microfluidizer (Microfluidics) for 20 minutes. Cell debris is removed by centrifugation at 100,000×g. The cell extracts are aliquoted in 1 ml aliquots, frozen on dry ice, and stored at −80° C.
The kinase reactions are performed following a standard procedure. The enzyme and inhibitor are diluted in kinase buffer (50 mM HEPES, pH 8.0, 10 mM MgCl2, 2.5 mM EGTA, 10 mM β-glycerophosphate, 1 mM sodium vanadate, 1 mM sodium fluoride, and 1 mM DTT) and pre-incubated for 30 minutes. […] The cdk1 enzyme activity is assayed using Histone H1 (Sigma) in the presence of 10 μM ATP for 30 min at room temperature. The reactions are terminated by the addition of 50 μL of 10 mM cold ATP to stop the reactions. The reactions are transferred to a pre-soaked 96-well multi-screen plate containing 30 μL of 100% TCA per well. After incubation for one hour at room temperature, the plates are washed twice with 200 μl of 20% TCA, followed by 200 μl of 10% TCA and finally with 200 μl of 5% TCA. After drying the plates at room temperature, the filter plates are placed in adapter plates (Packard) and 40 μl of Microscint-O® (Packard) is added to each well. Top Seal A film is used to cover the plates before counting in a Top Count Scintillation Counter.
The % remained activity of the indicated Cdk/cyclin kinase complex in the presence of inhibitor is calculated by the ratio of cpm in the presence of inhibitor to cpm in the absence of inhibitor (% Activity=vi/vo×100%).
Protocol for cdk2/cyclin E: as §7
The cdk2 sequence (accession number X62071) is amplified by PCR and cloned into the SpeI and XhoI sites of pFASTBAC1 (Life Technologies). […] This primer would anneal in the 3′ untranslated sequence.
The cyclin E sequence (accession number M73812) is amplified by PCR and cloned into the XbaI and XhoI sites of pFASTBAC1 (Life Technologies).
as §8, §9, §10, §11
The kinase reactions are performed following a standard procedure. […]
The transformed bacteria are grown overnight to saturation, then diluted in YT broth and incubated at 37° C. for 2 h. […] The beads are washed with kinase buffer and then quantitated of Coomassie blue-stained proteins separated by SDS-PAGE using a protein standard of known concentration.

For the compound `CN1CC[C@H](c2c(O)cc(O)c3c(=O)cc(-c4ccccc4Cl)oc23)[C@H](O)C1` [Flavopiridol], in test [1], the “concentration giving maximal protection from death” value was 1 µM and the “cell death at day 6” value is “approximately 30%”. Further, the SMC growth entry in the test on SMC was “inhibit SMC growth in vitro and in vivo”.
For `Cn1cnc2c(NCc3ccccc3)nc(NCCO)nc21` [Olomoucine, 6-(benzylamino)-2-[(2-hydroxyethyl)amino]-9-methylpurine], in [1], the “concentration giving maximal protection from death” value was 200 µM and the “cell death at day 6” value is recorded as “approximately 30%”. The “replication of herpes simplex virus” value with herpes simplex virus is reported as “inhibited the replication”.
On to “trans-1-{4-[2-(4-Amino-cyclohexylamino)-9-cyclopentyl-9H-purin-6-ylamino]-piperidin-1-yl}-1-(4-trifluoromethyl-phenyl)-methanone dihydrochloride [Compound 3]”, for which the half-maximal inhibitory concentration (IC50) on cdk4/cyclin D1 (inhibition of cyclin D1/CDK 4 enzyme activity) came to 1.12 µM; in the test with MDA-MB-435 it was 0.25 µM; in the test with HL-60 it was 0.13 µM; in the test with Jurkat it was 0.22 µM; in the test on PC-3, 0.66 µM; on cdk2/cyclin E, 0.048 µM. Further, the half-inhibitory concentration (IC50) on cdk1/cyclin B stood at 0.055 µM. In addition, the “PC-3 Mean Vol. ± SD” value in test [2] (1 mg/kg ip q1d 5x/wk) worked out at 671 ± 672; in [2] (3 mg/kg ip q1d 5x/wk) it was 785 ± 473. Besides, the “HL60 Mean Vol. ± SD” value in the test with HL-60 human leukemia (1 mg/kg ip q1d 5x/wk) was found to be 6370 ± 4655; in the test with HL-60 human leukemia (3 mg/kg ip q1d 5x/wk), 6092 ± 4278.
Regarding “trans-N^2-(4-Amino-cyclohexyl)-9-cyclohexyl-N^6-[1-(4-chloro-benzenesulfonyl)-piperidin-4-yl]-9H-purine-2,6-diamine dihydrochloride [Compound 108]”, the IC50 on cdk4/cyclin D1 is 0.17 µM; with MDA-MB-435, 0.14 µM; in the test on NCI-H460 it was 0.29 µM; in the test with PC-3, 0.43 µM; with Colo-205, 0.18 µM; on cdk2/cyclin E it was 0.01 µM. The half-maximal inhibitory concentration (IC50) at cdk1/cyclin B was determined as 0.007 µM.

Source of the values: patent US6861524B2, “Acyl and sulfonyl derivatives of 6,9-disubstituted 2-(trans-1,4-diaminocyclohexyl)-purines and their use as antiproliferative agents” (Aventis Pharmaceuticals Inc., priority 2000, dated 2005).
